We go through five molecules from US20240307484A1 (priority 2023, published 2024).

Structures are written as SMILES. Like-named read-outs stand apart in the source and are kept apart here. Numbered stars: 1 amine (or outer) side, 2 acyl side, 3 side chain; on linkers, the order of the positions; unused ones are H or OH. Bridge positions count the residues as written; N and C are the ends. Square brackets hold non-standard residues; d marks the D form. Peptide text beside a SMILES is read from it. I, II: the chains in the order shown. Actinocin(9to1) = Cc1c2oc3c(C)ccc(C(=O)[*:1])c3nc-2c(C(=O)[*:2])c(N)c1=O; NMeV = CN[C@H](C(=O)O)C(C)C; Sar = CNCC(=O)O

One test has as its system 4T1 cells. Nature of the test: Cytotoxicity / synergistic cytotoxic effect test in 4T1 cells. Type of test: cell-based, mouse. The text has this:
(§1) The cell lines used in the following examples, namely the MDA-MB-231 (human triple-negative breast cancer) cell line, the 4T1 (mouse triple-negative breast cancer) cell line, and the MCF-7 (breast cancer) cell line, are easily obtainable by a person with common knowledge in the art and therefore need not be deposited. The 4T1 cell line is frequently used as a research model for the metastasis of breast cancer and a model for the selection of clinical drugs for breast cancer.
(§2) MDA-MB-231 cells, 4T1 cells, and MCF-7 cells were treated with actinomycin D and doxorubicin in different ratios for 48 hours, before combination indices (CI) were calculated based on cytotoxicity.

The test system of a further test is MCF-7 cells. Nature of the test: Cytotoxicity / synergistic cytotoxic effect test in MCF-7 cells. Type of test: cell-based.
Text: as §1, §2

In test [1] the test system is 4T1 breast cancer mouse models. Nature of the test: Metastasis test in 4T1 breast cancer mouse models. The format is in vivo. To be noted: 4T1 mouse model; five weeks, treated every 7 days; cyclophosphamide 5 mg/kg, doxorubicin 0.5 mg/kg, actinomycin D 20 μg/kg. Here is the method:
4T1 breast cancer mouse models were created based on common knowledge in the art. The test lasted for five weeks, and the mice in each of the following groups were treated on the 0th, 7th, 14th, 21st, 28th, and 35th day of the test: • Group 1: Without any treatment; • Group 2: With cyclophosphamide administered at a dose of 5 mg/kg: • Group 3: With both cyclophosphamide and doxorubicin administered, the dose of cyclophosphamide being 5 mg/kg, and the dose of doxorubicin being 0.5 mg/kg (equivalent to a clinical dose of 20 mg/m^2 for humans); • Group 4: With actinomycin D administered at a dose of 20 μg/kg (equivalent to a clinical dose of […] for humans); • Group 5: With doxorubicin administered at a dose of 0.5 mg/kg: • Group 6: With both actinomycin D (20 μg/kg) and doxorubicin (0.5 mg/kg) administered; and • Group 7: With both actinomycin D (10 μg/kg) and doxorubicin (0.25 mg/kg) administered, the doses being 0.5 times as high as those for group 6.
Once the test was completed, the mice in each group were sacrificed, and the numbers of breast tumors that had metastasized to the lungs and to the liver (i.e., lung metastatic nodules and liver metastatic nodules) of each group of mice were counted. In addition, lungs and livers were collected from the mice, sectioned, and then stained with hematoxylin and eosin (H&E) stain, as shown in FIG. 20.

The next test relates to MDA-MB-231 cells. Nature of the test: Cytotoxicity / synergistic cytotoxic effect test in MDA-MB-231 cells. The format is cell-based, human.
Text: as §1, §2

Where [2] appears, read: Table 1, 4T1 cells, read-out: IC50 of various chemotherapy drugs against different cancer cells.
Where [3] appears, read: Table 1, MCF-7 cells, read-out: IC50 of various chemotherapy drugs against different cancer cells.
Where [4] appears, read: Table 1, MDA-MB-231 cells, read-out: IC50 of various chemotherapy drugs against different cancer cells.

For `Cc1c2oc3c(C)ccc(C(=O)N[C@@H]4C(=O)N[C@H](C(C)C)C(=O)N5CCC[C@H]5C(=O)N(C)CC(=O)N(C)[C@@H](C(C)C)C(=O)O[C@@H]4C)c3nc-2c(C(=O)N[C@@H]2C(=O)N[C@H](C(C)C)C(=O)N3CCC[C@H]3C(=O)N(C)CC(=O)N(C)[C@@H](C(C)C)C(=O)O[C@@H]2C)c(N)c1=O` [Actinomycin D, actinomycin D] (I: T[dV]P[Sar][NMeV] / II: T[dV]P[Sar][NMeV]; ester I:1-I:C, II:1-II:C; linker I:N-II:N via Actinocin(9to1)), the IC50 with 4T1 cells (Mus musculus, 4T1, 48 h) stood at 2.6 nM; in the test with 4T1 cells (Mus musculus, 4T1, read-out: IC50 of various chemotherapy drugs against different cancer cells), 500 ± 40 nM; with MCF-7 cells (Homo sapiens, MCF7, 48 h), 3.7 nM; with MCF-7 cells (Homo sapiens, MCF7, read-out: IC50 of various chemotherapy drugs against different cancer cells), 300 ± 60 nM; with MDA-MB-231 cells (Homo sapiens, MDA-MB-231, 48 h), 3.3 nM; with MDA-MB-231 cells (Homo sapiens, MDA-MB-231, read-out: IC50 of various chemotherapy drugs against different cancer cells) it was 1100 ± 190 nM. For the same molecule, the “number of liver metastatic nodules” value in test [1] is reported as “increased in comparison with those of group-3 mice”. Moreover, the “number of lung metastatic nodules” value in test [1] was “increased in comparison with those of group-3 mice”.

Turning to `N.N.[Cl][Pt][Cl]` [Cisplatin, cisplatin], the IC50 in the test on 4T1 cells (setting [2]) amounted to 3300 ± 1200 nM; with MCF-7 cells (setting [3]) it was 19100 ± 2200 nM; in the test with MDA-MB-231 cells (setting [4]), 37200 ± 5100 nM.

Turning to `O=P1(N(CCCl)CCCl)NCCCO1` (stereo not drawn) [cyclophosphamide], in test [1], the “number of liver metastatic nodules” value is recorded as “reduced only slightly” and the “number of lung metastatic nodules” value is “reduced only slightly”.

On to `COc1cccc2c1C(=O)c1c(O)c3c(c(O)c1C2=O)C[C@@](O)(C(=O)CO)C[C@@H]3O[C@H]1C[C@H](N)[C@H](O)[C@H](C)O1` [Doxorubicin, doxorubicin], for which the IC50 was 2.8 ± 1.1 nM in the test on 4T1 cells (Mus musculus, Table 1, 4T1 cells, read-out: IC50 of various chemotherapy drugs against different cancer cells); 579 nM with 4T1 cells (Mus musculus, Table 2, single drug, 4T1 cells, 48 hours, read-out: IC50); 4.5 ± 1.7 nM in the test with MCF-7 cells (Homo sapiens, MCF7, Table 1, MCF-7 cells, read-out: IC50 of various chemotherapy drugs against different cancer cells); 323 nM with MCF-7 cells (Homo sapiens, MCF7, Table 2, single drug, MCF-7 cells, 48 hours, read-out: IC50); 6.5 ± 0.9 nM in the test on MDA-MB-231 cells (Homo sapiens, Table 1, MDA-MB-231 cells, read-out: IC50 of various chemotherapy drugs against different cancer cells); 1270 nM with MDA-MB-231 cells (Homo sapiens, Table 2, single drug, MDA-MB-231 cells, 48 hours, read-out: IC50). The “number of liver metastatic nodules” value in test [1] is “significantly less liver metastatic nodules than group-1 mice”. The “number of lung metastatic nodules” value in test [1] is “approximately the same number of lung metastatic nodules as group-3 mice”.

With `O=c1[nH]cc(F)c(=O)[nH]1` [5FU], the IC50 was 5900 ± 300 nM in the test with 4T1 cells (setting [2]), 38300 ± 5000 nM in the test on MCF-7 cells (setting [3]) and more than 100000 nM in the test with MDA-MB-231 cells (setting [4]).
